# Tested on: CAL51 cell proliferation
# Assay: Cell Titer Glo Proliferation Assay (CAL51)
# Assay type: cell-based, human
# Conditions: Homo sapiens, CAL-51; CAL51 cell proliferation, 72 h, Cell Titer Glo luminescence; read-out: Act. Level
# Method: Cell Titer Glo Proliferation Assay. Triple negative breast cancer cell line CAL51 was purchased from DSMZ. […] Allcell lines were maintained in growth media consisting of 90% high glucose Dulbecco's Modified Eagle Medium or RPMI1640 (Invitrogen), 10% fetal bovine serum (Hyclone), and 2 mM L-glutamine (Invitrogen). […] After overnight culture, compound stock (30 mM) was diluted serially in DMSO, further diluted in growth media, and was added to each well as a 10× concentrated solution in a volume of 11 μL, mixed, and allowed to incubate with cells. The compound vehicle (DMSO) was maintained at a final concentration of 0.2% in all wells. After 72 h, 100 μL of Cell Titer Glo solution (Promega) was added to each well of the 96-well plate. The plate was placed on a shaker for 2 minutes. After 10 minutes incubation, the luminescence signal was detected with Envision microplate reader (Perkin Elmer).
row,Compound,IC50 [nM]
1,"C[C@@H](O)c1cccc(-c2c[nH]c3nc(Nc4ccc(C(=O)N(C)C)cc4Cl)nc(NC4CCOCC4)c23)c1 [Example 84, (R)-3-chloro-4-(5-(3-(1-hydroxyethyl)phenyl)-4-(tetrahydro-2H-pyrazin-4-ylamino)-7H-pyrrolo [2,3-d]pyrimidin-2-ylamino)-N,N-dimethylbenzamide]",100 to 400
2,"C[C@H](O)c1cccc(-c2c[nH]c3nc(Nc4ccc(C(=O)N(C)C)cc4Cl)nc(NC4CCOCC4)c23)c1 [Example 85, (S)-3-chloro-4-(5-(3-(1-hydroxy-ethyl)phenyl)-4-(tetrahydro-2H-pyran-4-ylamino)-7H-pyrrolo[2,3-d]pyrimidin-2-ylamino)-N,N-dimethylbenzamide]",< 100
3,"Cc1nc2ccc(-c3c[nH]c4nc(Nc5ccc(C(=O)N6CCOCC6)cc5C)nc(OC5CCCC5)c34)cc2o1 [Example 86, (4-(4-(cyclopentyloxy)-5-(2-methylbenzo[d]oxazol-6-yl)-7H-pyrrolo[2,3-d]pyrimidin-2-ylamino)-3-methylphenyl) (morpholino)methanone]",100 to 400
4,"COc1nc(Nc2ccc3[nH]ncc3c2)nc2[nH]cc(-c3ccc4nc(C)oc4c3)c12 [Example 87, N-(1H-indazol-5-yl)-4-methoxy-5-(2-methylbenzo[d]oxazol-6-yl)-7H-pyrrolo[2,3-d]pyrimidin-2-amine]",100 to 400
5,"COc1nc(Nc2ccc(-c3cn[nH]c3)cc2)nc2[nH]cc(-c3ccc4nc(C)oc4c3)c12 [Example 88, N-(4-(1H-pyrazol-4-yl)phenyl)-4-methoxy-5-(2-methylbenzo[d]oxazol-6-yl)-7H-pyrrolo[2,3-d] pyrimidin-2-amine]",100 to 400
6,"COc1nc(Nc2ccc(C(=O)N(C)C)cc2C)nc2[nH]cc(-c3ccncc3)c12 [Example 89, 4-(4-methoxy-5-(pyridin-4-yl)-7H-pyrrolo[2,3-d]pyrimidin-2-ylamino)-N,N,3-trimethylbenzamide]",100 to 400
7,"CNC(=O)c1ccc(Nc2nc(OC3CCOCC3)c3c(-c4ccc5nc(C)oc5c4)c[nH]c3n2)c(OC)c1 [Example 90, 3-methoxy-N-methyl-4-(5-(2-methylbenzo[d]oxazol-6-yl)-4-(tetrahydro-2H-pyran-4-yloxy)-7H-pyrrolo[2,3-d]pyrimidin-2-ylamino)benzamide]",< 100
8,"COc1cc(C(=O)N(C)C)ccc1Nc1nc(OC2CCCC2)c2c(-c3ccc4nc(C)oc4c3)c[nH]c2n1 [Example 91, 4-(4-(cyclopentyloxy)-5-(2-methylbenzo[d]oxazol-6-yl)-7H-pyrrolo[2,3-d]pyrimidin-2-ylamino)-3-methoxy-N,N-dimethylbenzamide]",100 to 400
9,"Cc1nc2ccc(-c3c[nH]c4nc(Nc5ccc(C(=O)N(C)C)cc5C)nc(O[C@H]5CC[C@H](O)CC5)c34)cc2o1 [Example 92, 4-(4-((1r,4r)-4-hydroxycyclo-hexyloxy)-5-(2-methylbenzo[d]oxazol-6-yl)-7H-pyrrolo[2,3-d]pyrimidin-2-ylamino)-N,N,3-trimethylbenzamide]",< 100
10,"Cc1cc(C(=O)N(C)C)ccc1Nc1nc(OC2CCOCC2)c2c(-c3ccncc3)c[nH]c2n1 [Example 93, N,N,3-trimethyl-4-(5-(pyridin-4-yl)-4-(tetrahydro-2H-pyran-4-yloxy)-7H-pyrrolo[2,3-d]pyrimidin-2-ylamino)benzamide]",< 100
11,"CNC(=O)c1ccc(Nc2nc(OC3CCCC3)c3c(-c4ccc5nc(C)oc5c4)c[nH]c3n2)c(C)c1 [Example 94, 4-(4-(cyclopentyloxy)-5-(2-methylbenzo[d]oxazol-6-yl)-7H-pyrrolo[2,3-d]pyrimidin-2-ylamino)-N,3-dimethylbenzamide]",400 to 1000
12,"Cc1nc2ccc(-c3c[nH]c4nc(Nc5ccc(C(=O)N(C)C)cc5C)nc(OC5CCN(C)CC5)c34)cc2o1 [Example 95, N,N,3-trimethyl-4-(5-(2-methylbenzo[d]oxazol-6-yl)-4-(1-methylpiperidin-4-yloxy)-7H-pyrrolo[2,3-d]pyrimidin-2-ylamino)benzamide]",400 to 1000
13,"COc1cc(C(=O)N2CCOCC2)ccc1Nc1nc(OC2CCCC2)c2c(-c3ccc4nc(C)oc4c3)c[nH]c2n1 [Example 96, (4-(4-(cyclopentyloxy)-5-(2-methylbenzo[d]oxazol-6-yl)-7H-pyrrolo[2,3-d]pyrimidin-2-ylamino)-3-methoxyphenyl)(morpholino) methanone]",400 to 1000
14,"Cc1nc2ccc(-c3c[nH]c4nc(Nc5ccc(C(=O)N(C)C)cc5C)nc(OC5CCNCC5)c34)cc2o1 [Example 97, N,N,3-trimethyl-4-(5-(2-methylbenzo[d]oxazol-6-yl)-4-(piperidin-4-yloxy)-7H-pyrrolo [2,3-d]pyrimidin-2-ylamino) benzamide]",1000 to 10000
15,"Cc1nc2ccc(-c3c[nH]c4nc(Nc5ccc(C(=O)N(C)C)cc5C)nc(O[C@H]5CCOC5)c34)cc2o1 [Example 98, (S)-N,N,3-trimethyl-4-(5-(2-methylbenzo[d]oxazol-6-yl)-4-(tetrahydrofuran-3-yloxy)-7H-pyrrolo[2,3-d]pyrimidin-2-ylamino)benzamide]",< 100
16,"Cc1nc2ccc(-c3c[nH]c4nc(Nc5ccc(C(=O)N(C)C)cc5C)nc(O[C@@H]5CCOC5)c34)cc2o1 [Example 99, (R)-N,N,3-trimethyl-4-(5-(2-methylbenzo[d]oxazol-6-yl)-4-(tetrahydrofuran-3-yloxy)-7H-pyrrolo[2,3-d]pyrimidin-2-ylamino)benzamide]",< 100
17,"COc1cc(C(=O)NCCN)ccc1Nc1nc(OC2CCCC2)c2c(-c3ccc4nc(C)oc4c3)c[nH]c2n1 [Example 100, N-(2-aminoethyl)-4-(4-(cyclopentyl-oxy)-5-(2-methylbenzo[d]oxazol-6-yl)-7H-pyrrolo[2,3-d]pyrimidin-2-ylamino)-3-methoxybenzamide]",< 100
18,"CCOc1ccc(-c2c[nH]c3nc(Nc4ccc(C(=O)NC)cc4OC)nc(OC4CCOCC4)c23)cn1 [Example 102, 4-(5-(6-ethoxypyridin-3-yl)-4-(tetrahydro-2H-pyran-4-yloxy)-7H-pyrrolo[2,3-d]pyrimidin-2-ylamino)-3-methoxy-N-methylbenzamide]",100 to 400
19,"COc1ccccc1Nc1nc(OC2CCCC2)c2c(-c3ccc4nc(C)oc4c3)c[nH]c2n1 [Example 103, 4-(cyclopentyloxy)-N-(2-methoxyphenyl)-5-(2-methylbenzo[d]oxazol-6-yl)-7H-pyrrolo[2,3-d]pyrimidin-2-amine]",100 to 400
20,"Cc1nc2ccc(-c3c[nH]c4nc(Nc5ccc(C(=O)N(C)C)cc5C)nc(O[C@H]5CCCOC5)c34)cc2o1 [Example 104, (S)-N,N,3-trimethyl-4-(5-(2-methylbenzo[d]oxazol-6-yl)-4-(tetrahydro-2H-pyran-3-yloxy)-7H-pyrrolo[2,3-d]pyrimidin-2-ylamino)benzamide]",< 100
21,"Cc1cc(C(=O)N(C)C)ccc1Nc1nc(OC2CCOCC2)c2c(-c3cccc(S(C)(=O)=O)c3)c[nH]c2n1 [Example 105, N,N,3-trimethyl-4-(5-(3-(methylsulfonyl)phenyl)-4-(tetrahydro-2H-pyran-4-yloxy)-7H-pyrrolo[2,3-d]pyrimidin-2-ylamino)benzamide]",< 100
22,"CNC(=O)c1ccc(Nc2nc(OC3CCOCC3)c3c(-c4cccc(S(C)(=O)=O)c4)c[nH]c3n2)c(OC)c1 [Example 106, 3-methoxy-N-methyl-4-(5-(3-(methylsulfonyl)phenyl)-4-(tetrahydro-2H-pyran-4-yloxy)-7H-pyrrolo[2,3-d]pyrimidin-2-ylamino)benzamide]",< 100
23,"Cc1cc(C(=O)N(C)C)ccc1Nc1nc(OC2CCOCC2)c2c(-c3cncnc3)c[nH]c2n1 [Example 107, N,N,3-trimethyl-4-(5-(pyrimidin-5-yl)-4-(tetrahydro-2H-pyran-4-yloxy)-7H-pyrrolo[2,3-d]pyrimidin-2-ylamino)benzamide]",100 to 400
24,"CCOc1ccc(-c2c[nH]c3nc(Nc4ccc(C(=O)N(C)C)cc4C)nc(OC4CCOCC4)c23)cn1 [Example 109, 4-(5-(6-ethoxypyridin-3-yl)-4-(tetrahydro-2H-pyran-4-yloxy)-7H-pyrrolo[2,3-d]pyrimidin-2-ylamino)-N,N,3-trimethylbenzamide]",< 100
25,"CNC(=O)c1ccc(Nc2nc(OC3CCCC3)c3c(-c4ccc5nc(N)[nH]c5c4)c[nH]c3n2)c(OC)c1 [Example 110, 4-(5-(2-amino-1H-benzo[d]imidazol-6-yl)-4-(cyclopentyloxy)-7H-pyrrolo[2,3-d]pyrimidin-2-ylamino)-3-methoxy-N-methylbenzamide]",< 100
26,"Cc1cc(C(=O)N(C)C)ccc1Nc1nc(OC2CCOCC2)c2c(-c3nnco3)c[nH]c2n1 [Example 111, 4-(5-(1,3,4-oxadiazol-2-yl)-4-(tetrahydro-2H-pyran-4-yloxy)-7H-pyrrolo[2,3-d]pyrimidin-2-ylamino)-N,N,3-trimethylbenzamide]",1000 to 10000
27,"Cc1cc(C(=O)N(C)C)ccc1Nc1nc(OC2CCOCC2)c2c(-c3cnn(C)c3)c[nH]c2n1 [Example 112, N,N,3-trimethyl-4-(5-(1-methyl-1H-pyrazol-4-yl)-4-(tetrahydro-2H-pyran-4-yloxy)-7H-pyrrolo[2,3-d]pyrimidin-2-ylamino)benzamide]",< 100
28,"Cc1cc(C(=O)N(C)C)ccc1Nc1nc(OC2CCOCC2)c2c(-c3ccn(C)n3)c[nH]c2n1 [Example 113, N,N,3-trimethyl-4-(5-(1-methyl-1H-pyrazol-3-yl)-4-(tetrahydro-2H-pyran-4-yloxy)-7H-pyrrolo[2,3-d]pyrimidin-2-ylamino)benzamide]",400 to 1000
29,"CNC(=O)c1ccc(Nc2nc(OC3CCOCC3)c3c(-c4ccncc4)c[nH]c3n2)c(OC)c1 [Example 114, 3-methoxy-N-methyl-4-(5-(pyridin-4-yl)-4-(tetrahydro-2H-pyran-4-yloxy)-7H-pyrrolo[2,3-d]pyrimidin-2-ylamino)benzamide]",< 100

# Reference: patent US9346812B2, “Substituted pyrrolopyrimidine compounds, compositions thereof, and methods of treatment therewith” (Signal Pharmaceutical LLC, priority 2013, dated 2016)
